# Assay results published in patent US20100298141A1, “SUBSTITUTED PYRIDINE N-OXIDE HERBICIDES” (E. I. DU PONT DE NEMOURS AND COMPANY, priority 2007, published 2010).
# Key:
# purple nutsedge = assay: Test F preemergence test; format: in vivo, Cyperus rotundus; conditions: scale 0 to 100
# In short: (§1)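 Compound in a non-phytotoxic solvent blend with surfactant is applied preemergence to planted seeds or postemergence to sugarcane plants. Plants and controls stay in the greenhouse 14 to 21 days before visual comparison.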
# annual bluegrass = assay: Test F preemergence test; format: in vivo, Poa annua; conditions: scale 0 to 100
# In short: as §1
# common ragweed = assay: Test C pre-/postemergence test; format: in vivo, Ambrosia elation
# In short: (§2)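 Test chemicals were formulated with surfactant in a non-phytotoxic solvent and sprayed both on freshly planted seeds (preemergence) and on 1- to 4-leaf plants of 2–18 cm (postemergence). Flooded-paddy pots received compound directly into 3 cm of standing water, maintained for the test.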
# green foxtail = assay: Test F preemergence test; format: in vivo, Setaria viridis; conditions: scale 0 to 100
# In short: as §1
# giant foxtail = assay: Test A pre-/postemergence greenhouse test; format: in vivo, Setaria faberi; conditions: for Plant response rating, Foxtail, Giant: 0 to 100 scale where 0 is no effect and 100 is complete control; for Foxtail, Giant plant response rating: 0 to 100 scale
# In short: (§3)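 Seeds sown in a loam soil–sand blend got a preemergence directed soil spray of compound in a non-phytotoxic solvent mixture containing surfactant. Postemergence sprays of the same formulation went at the same time onto plants 2–10 cm tall at the one- to two-leaf stage. Injury was scored visually against untreated controls after about ten days in the greenhouse.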
# southern sandbur = assay: Test F preemergence test; format: in vivo, Cenchrus echinatus; conditions: scale 0 to 100
# In short: as §1
# field bindweed = assay: Test F preemergence test; format: in vivo, Convolvulus arvensis; conditions: scale 0 to 100
# In short: as §1
# common mallow = assay: Test F preemergence test; format: in vivo, Malva sylvestris; conditions: scale 0 to 100
# In short: as §1
# wheat = assay: Test C pre-/postemergence test; format: in vivo, Triticum aestivum
# In short: as §2
# velvetleaf = assay: Test A pre-/postemergence greenhouse test; format: in vivo, Abutilon theophrasti; conditions: for Plant response rating, Velvetleaf: 0 to 100 scale where 0 is no effect and 100 is complete control; for Velvetleaf plant response rating: 0 to 100 scale
# In short: as §3
# barnyardgrass = assay: Test C flooded paddy test; format: in vivo, Echinochloa crus-galli; conditions: Flood
# In short: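 Compound was added to standing water 3 cm above soil, flood maintained, and plants held in a greenhouse before visual scoring against controls at 13 to 15 days.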
# [1] = 62 g ai/ha, Preemergence, scale 0 to 100
# [2] = Preemergence, 31 g ai/ha, scale 0 to 100 (0 no effect, 100 complete control)
# [3] = preemergence, 250 g ai/ha, scale 0 (no effect) to 100 (complete control)
# [4] = Postemergence, 500 g ai/ha, 0 is no effect, 100 is complete control
# [5] = Preemergence, 125 g ai/ha, 0 no effect, 100 complete control
# [6] = 62 g ai/ha, preemergence, scale 0 (no effect) to 100 (complete control)
# [7] = Postemergence, 125 g ai/ha, scale 0 to 100, 0 no effect, 100 complete control
# [8] = Postemergence, 250 g ai/ha, scale 0 to 100, 0 no effect, 100 complete control
# [9] = preemergence, 125 g ai/ha, scale 0 (no effect) to 100 (complete control)
# [10] = Postemergence, 125 g ai/ha, 0 is no effect, 100 is complete control
# [11] = 31 g ai/ha, scale 0 to 100 (0 no effect, 100 complete control)
# [12] = 62 g ai/ha, scale 0 to 100, 0 no effect, 100 complete control, 13 to 15 days
# [13] = 125 g ai/ha, scale 0 to 100, 0 no effect, 100 complete control, 13 to 15 days
# [14] = 250 g ai/ha, scale 0 to 100 (0 no effect, 100 complete control)
smiles,measurement,setting,value
CCc1cc[n+]([O-])c(S(=O)(=O)Cc2c(C(F)(F)F)nn(C)c2OCC(F)(F)F)c1 [Compound 60],Purple Nutsedge plant response rating,"purple nutsedge; 62 g ai/ha, Preemergence",50
same,Purple Nutsedge plant response rating,"purple nutsedge; 125 g ai/ha, preemergence",80
same,Purple Nutsedge plant response rating,"purple nutsedge; 250 g ai/ha, preemergence",90
same,"Plant response rating, Purple Nutsedge","purple nutsedge; Preemergence, 31 g ai/ha",0
same,Bluegrass plant response rating,"annual bluegrass; 62 g ai/ha, Preemergence",50
same,Bluegrass plant response rating,"annual bluegrass; 125 g ai/ha, preemergence",90
same,Bluegrass plant response rating,"annual bluegrass; 250 g ai/ha, preemergence",100
same,"Plant response rating, Bluegrass","annual bluegrass; Preemergence, 31 g ai/ha",35
same,Ragweed plant response rating,common ragweed; [1],60
same,"Plant response rating, Ragweed",common ragweed; [2],30
same,Ragweed plant response rating,common ragweed; [3],90
same,"Foxtail, Green plant response rating","green foxtail; 62 g ai/ha, Preemergence",75
same,"Foxtail, Green plant response rating","green foxtail; 125 g ai/ha, preemergence",100
same,"Foxtail, Green plant response rating","green foxtail; 250 g ai/ha, preemergence",100
same,"Plant response rating, Foxtail, Green","green foxtail; Preemergence, 31 g ai/ha",15
same,"Plant response rating, Foxtail, Giant","giant foxtail; Postemergence, 125 g ai/ha",60
same,"Foxtail, Giant plant response rating",giant foxtail; [4],90
same,"Foxtail, Giant plant response rating",giant foxtail; [5],100
same,"Plant response rating, Foxtail, Giant","giant foxtail; Preemergence, 500 g ai/ha",100
same,Sandbur plant response rating,"southern sandbur; 125 g ai/ha, preemergence",100
same,Sandbur plant response rating,"southern sandbur; 250 g ai/ha, preemergence",100
same,"Plant response rating, Sandbur","southern sandbur; Preemergence, 62 g ai/ha",65
same,"Plant response rating, Sandbur","southern sandbur; Preemergence, 31 g ai/ha",20
same,Field Bindweed plant response rating,"field bindweed; 62 g ai/ha, Preemergence",30
same,Field Bindweed plant response rating,"field bindweed; 125 g ai/ha, preemergence",50
same,Field Bindweed plant response rating,"field bindweed; 250 g ai/ha, preemergence",70
same,"Plant response rating, Field Bindweed","field bindweed; Preemergence, 31 g ai/ha",0
same,Mallow plant response rating,"common mallow; 62 g ai/ha, Preemergence",75
same,Mallow plant response rating,"common mallow; 125 g ai/ha, preemergence",100
same,Mallow plant response rating,"common mallow; 250 g ai/ha, preemergence",100
same,"Plant response rating, Mallow","common mallow; Preemergence, 31 g ai/ha",0
same,Wheat plant response rating,wheat; [1],15
same,Wheat plant response rating,"wheat; 125 g ai/ha, preemergence, scale 0 (no effect) to 100 (complete control)",30
same,"Plant response rating, Wheat",wheat; [2],0
same,Wheat plant response rating,wheat; [3],100
same,"Plant response rating, Velvetleaf","velvetleaf; Postemergence, 125 g ai/ha",60
same,Velvetleaf plant response rating,velvetleaf; [4],70
same,Velvetleaf plant response rating,velvetleaf; [5],70
same,"Plant response rating, Velvetleaf","velvetleaf; Preemergence, 500 g ai/ha",100
same,"Plant response rating, Barnyardgrass","barnyardgrass; 62 g ai/ha, scale 0 to 100 (0 no effect, 100 complete control)",20
same,"Plant response rating, Barnyardgrass","barnyardgrass; 250 g ai/ha, scale 0 to 100, 0 no effect, 100 complete control, 13 to 15 days",45
Cc1cc[n+]([O-])c([S+]([O-])Cc2c(C(F)(F)F)nn(C)c2OC(F)F)c1 (stereo not drawn) [Compound 1],"Plant response rating, Purple Nutsedge","purple nutsedge; 8 g ai/ha, preemergence",0
same,Purple Nutsedge plant response rating,"purple nutsedge; 62 g ai/ha, Preemergence",60
same,"Plant response rating, Purple Nutsedge","purple nutsedge; Preemergence, 16 g ai/ha",0
same,"Plant response rating, Purple Nutsedge","purple nutsedge; Preemergence, 31 g ai/ha",60
same,"Plant response rating, Bluegrass","annual bluegrass; 8 g ai/ha, preemergence",0
same,Bluegrass plant response rating,"annual bluegrass; 62 g ai/ha, Preemergence",75
same,"Plant response rating, Bluegrass","annual bluegrass; Preemergence, 16 g ai/ha",0
same,"Plant response rating, Bluegrass","annual bluegrass; Preemergence, 31 g ai/ha",25
same,Ragweed plant response rating,"common ragweed; 31 g ai/ha, Preemergence, scale 0 to 100",0
same,Ragweed plant response rating,common ragweed; [6],10
same,"Plant response rating (0 to 100), Ragweed","common ragweed; Postemergence, 31 g ai/ha",0
same,"Plant response rating (0 to 100), Ragweed","common ragweed; Postemergence, 62 g ai/ha",0
same,"Plant response rating, Ragweed",common ragweed; [7],10
same,"Plant response rating, Ragweed",common ragweed; [8],20
same,"Plant response rating (0 to 100), Ragweed","common ragweed; Preemergence, 250 g ai/ha",85
same,Ragweed plant response rating,common ragweed; [9],85
same,"Plant response rating, Foxtail, Green","green foxtail; 8 g ai/ha, preemergence",0
same,"Foxtail, Green plant response rating","green foxtail; 62 g ai/ha, Preemergence",100
same,"Plant response rating, Foxtail, Green","green foxtail; Preemergence, 16 g ai/ha",60
same,"Plant response rating, Foxtail, Green","green foxtail; Preemergence, 31 g ai/ha",80
same,"Foxtail, Giant plant response rating",giant foxtail; [10],80
same,"Foxtail, Giant plant response rating",giant foxtail; [4],90
same,"Foxtail, Giant plant response rating",giant foxtail; [5],100
same,"Plant response rating, Foxtail, Giant","giant foxtail; Preemergence, 500 g ai/ha",100
same,"Plant response rating, Sandbur","southern sandbur; 8 g ai/ha, preemergence",0
same,"Plant response rating, Sandbur","southern sandbur; 16 g ai/ha, preemergence",30
same,Sandbur plant response rating,"southern sandbur; 62 g ai/ha, Preemergence",80
same,"Plant response rating, Sandbur","southern sandbur; Preemergence, 31 g ai/ha",60
same,"Plant response rating, Field Bindweed","field bindweed; 8 g ai/ha, preemergence",0
same,Field Bindweed plant response rating,"field bindweed; 62 g ai/ha, Preemergence",75
same,"Plant response rating, Field Bindweed","field bindweed; Preemergence, 16 g ai/ha",0
same,"Plant response rating, Field Bindweed","field bindweed; Preemergence, 31 g ai/ha",50
same,"Plant response rating, Mallow","common mallow; 8 g ai/ha, preemergence",0
same,Mallow plant response rating,"common mallow; 62 g ai/ha, Preemergence",100
same,"Plant response rating, Mallow","common mallow; Preemergence, 16 g ai/ha",0
same,"Plant response rating, Mallow","common mallow; Preemergence, 31 g ai/ha",70
same,Wheat plant response rating,wheat; [6],30
same,"Plant response rating (0 to 100), Wheat","wheat; Postemergence, 31 g ai/ha",0
same,"Plant response rating (0 to 100), Wheat","wheat; Postemergence, 62 g ai/ha",0
same,"Plant response rating, Wheat",wheat; [7],0
same,"Plant response rating, Wheat",wheat; [8],0
same,"Plant response rating (0 to 100), Wheat","wheat; Preemergence, 250 g ai/ha",95
same,Wheat plant response rating,wheat; [9],60
same,Velvetleaf plant response rating,velvetleaf; [10],50
same,Velvetleaf plant response rating,velvetleaf; [4],70
same,Velvetleaf plant response rating,velvetleaf; [5],30
same,"Plant response rating, Velvetleaf","velvetleaf; Preemergence, 500 g ai/ha",100
same,"Plant response rating, Barnyardgrass",barnyardgrass; [11],0
same,"Plant response rating, Barnyardgrass",barnyardgrass; [12],0
same,"Plant response rating, Barnyardgrass",barnyardgrass; [13],80
same,"Plant response rating, Barnyardgrass",barnyardgrass; [14],80
Cn1nc(C(F)(F)F)c(CS(=O)(=O)c2cccc[n+]2[O-])c1OCC(F)(F)F [Compound 29],Purple Nutsedge plant response rating,"purple nutsedge; 125 g ai/ha, preemergence",75
same,"Plant response rating, Purple Nutsedge","purple nutsedge; Preemergence, 16 g ai/ha",20
same,"Plant response rating, Purple Nutsedge","purple nutsedge; Preemergence, 31 g ai/ha",35
same,Bluegrass plant response rating,"annual bluegrass; 62 g ai/ha, Preemergence",98
same,Bluegrass plant response rating,"annual bluegrass; 125 g ai/ha, preemergence",100
same,"Plant response rating, Bluegrass","annual bluegrass; Preemergence, 16 g ai/ha",20
same,"Plant response rating, Bluegrass","annual bluegrass; Preemergence, 31 g ai/ha",75
same,Ragweed plant response rating,common ragweed; [1],30
same,"Foxtail, Green plant response rating","green foxtail; 62 g ai/ha, Preemergence",100
same,"Foxtail, Green plant response rating","green foxtail; 125 g ai/ha, preemergence",100
same,"Plant response rating, Foxtail, Green","green foxtail; Preemergence, 16 g ai/ha",25
same,"Plant response rating, Foxtail, Green","green foxtail; Preemergence, 31 g ai/ha",75
same,"Foxtail, Giant plant response rating",giant foxtail; [10],80
same,"Foxtail, Giant plant response rating",giant foxtail; [4],90
same,"Foxtail, Giant plant response rating",giant foxtail; [5],100
same,"Plant response rating, Foxtail, Giant","giant foxtail; Preemergence, 500 g ai/ha",100
same,Sandbur plant response rating,"southern sandbur; 62 g ai/ha, Preemergence",100
same,Sandbur plant response rating,"southern sandbur; 125 g ai/ha, preemergence",100
same,"Plant response rating, Sandbur","southern sandbur; Preemergence, 31 g ai/ha",100
same,Field Bindweed plant response rating,"field bindweed; 62 g ai/ha, Preemergence",0
same,Field Bindweed plant response rating,"field bindweed; 125 g ai/ha, preemergence",0
same,"Plant response rating, Field Bindweed","field bindweed; Preemergence, 16 g ai/ha",0
same,"Plant response rating, Field Bindweed","field bindweed; Preemergence, 31 g ai/ha",0
same,Mallow plant response rating,"common mallow; 62 g ai/ha, Preemergence",100
same,Mallow plant response rating,"common mallow; 125 g ai/ha, preemergence",100
same,"Plant response rating, Mallow","common mallow; Preemergence, 16 g ai/ha",0
same,"Plant response rating, Mallow","common mallow; Preemergence, 31 g ai/ha",0
same,Wheat plant response rating,wheat; [1],30
same,"Plant response rating, Wheat",wheat; [2],20
same,Velvetleaf plant response rating,velvetleaf; [10],40
same,Velvetleaf plant response rating,velvetleaf; [4],70
same,Velvetleaf plant response rating,velvetleaf; [5],40
same,"Plant response rating, Velvetleaf","velvetleaf; Preemergence, 500 g ai/ha",100
same,"Plant response rating, Barnyardgrass",barnyardgrass; [11],0
same,"Plant response rating, Barnyardgrass",barnyardgrass; [12],0
same,"Plant response rating, Barnyardgrass",barnyardgrass; [13],40
same,"Plant response rating, Barnyardgrass",barnyardgrass; [14],80
